Reference: patent publication US11534441B2, “MAP4K1 inhibitors” (Blueprint Medicines Corporation, priority 2020, dated 2022)

Assays:
MAP4K1 (HPK1) = MAP4K1 (HPK1) (Homo sapiens (Human), UniProt Q92918); test: MAP4K1 (HPK1) biochemical enzymatic activity, electrophoretic mobility shift (EZReader 2), ATP at APPKM (26 μM)
Text: MAP4K1 (HPK1) and relevant off-target enzymatic activity was monitored using the Perkin Elmer electrophoretic mobility shift technology platform—the EZReader 2. […] Within the linear, steady-state phase of the kinase enzymatic reaction, the mixed pool of phosphorylated (product) and non-phosphorylated (substrate) peptides was passed through the microfluidic system of the PerkinElmer EZ Reader 2, under an applied electric potential difference. The presence of the phosphate group on the product peptide provided a difference in mass and charge between that of the substrate peptide, resulting in a separation of the substrate and product pools in the sample (Perrin et al. 2010). As the product and substrate peptide mixture passes the lasers within the instrument, these pools are detected (λex=488 nm, λent=568 nm) and resolved as separate peaks. The ratio between these peaks reflects the activity of the compound at that concentration, in that well, under those conditions.
Inhibitors were dissolved in 100% DMSO at a stock concentration of 10 mM. A 100×, 10-point, 4-fold serial dilution of each inhibitor was created in 100% DMSO either manually or on a Hamilton STAR liquid handler, starting at a relevant concentration, usually 1 mM. A volume of 0.130 μL of each concentration was transferred to the relevant wells of a 384-well plate (Greiner 781 201) in duplicate using a TTPLabtech Mosquito nano-litre dispenser. Using a Multidrop Combi, the remaining constituents of the kinase reaction were added to the 130 nL of dosed compound as follows (see table below for final reaction details):
Enzyme activity assays at the ^APPKM for ATP or 1 mM ATP: In each well of a 384-well plate, 0.1-15 nM of untreated enzyme was incubated in a total of 13 μL of buffer (100 mM HEPES pH 7.5, 0.015% Brij 35, 10 mM MgCl2, 1 mM DTT) with 1.5 μM fluorescent peptid and 20-1000 μM ATP, at 25° C., for 60-180 minutes in the presence or absence of a dosed concentration series of compound (1% DMSO final concentration). The kinase reactions were stopped by the addition of 70 μl of Stop buffer (100 mM HEPES pH 7.5, 0.015% Brij 35, 35 mM EDTA and 0.2% of Coating Reagent 3 (Caliper Lifesciences)). The plates were read on a Caliper EZReader 2 as described above.

expanded CD3+ T cells = test: T cell enhancement of cytokines: IL2 measurement (HTRF) in expanded CD3+ T cells stimulated with anti-CD3/anti-CD28; format: cell-based, human; details: IL-2 measurement
Method: T cells are isolated from whole blood of healthy donors by immunomagnetic negative selection following manufacture's protocol (StemCell Technologies, human T cell isolation kit). Purity of isolated cells is assessed by flow cytometry and yields 95-98% CD3^+ T cells. For expansion of T cells, 1×10^6 cells/well are plated in serum free cell expansion media (ThermoFisher) containing 30 U of recombinant human IL2 (R&D) and stimulated with 25 ul of CD3/CD28 beads (Invitrogen) in 24 well plates for 3-4 days. T cells are then expanded in 175 cm flasks and maintained at a cell density of 1 to 2.5×10^6 cells/ml days by addition of ⅔ of fresh media every 2-3 days. After 10-14 days, cells are frozen in BamBanker freezing media (Thermo) and stored in liquid nitrogen.
For IL2 measurement, expanded CD3^+ T cells are dispensed at 100K cells/well (cultured in X-VIVO 10 Serum-free media) and are stimulated with plate-bound anti-CD3 and soluble anti-CD28 in the presence of vehicle or compound of the disclosure at various concentrations for 24 h. As outlined in the manufacturer's protocol (Cisbio), 16 μL of conditioned media is transferred to a white 384-well low volume plate. Following a 24 h incubation with the anti-IL2 antibodies, the homogenous time resolved fluorescence (HTRF) is measured.

[1] = Homo sapiens, T-cell, class designation
[2] = Homo sapiens, T-cell, numeric value

MAP4K1 (HPK1), sequence (Q92918 whole entry): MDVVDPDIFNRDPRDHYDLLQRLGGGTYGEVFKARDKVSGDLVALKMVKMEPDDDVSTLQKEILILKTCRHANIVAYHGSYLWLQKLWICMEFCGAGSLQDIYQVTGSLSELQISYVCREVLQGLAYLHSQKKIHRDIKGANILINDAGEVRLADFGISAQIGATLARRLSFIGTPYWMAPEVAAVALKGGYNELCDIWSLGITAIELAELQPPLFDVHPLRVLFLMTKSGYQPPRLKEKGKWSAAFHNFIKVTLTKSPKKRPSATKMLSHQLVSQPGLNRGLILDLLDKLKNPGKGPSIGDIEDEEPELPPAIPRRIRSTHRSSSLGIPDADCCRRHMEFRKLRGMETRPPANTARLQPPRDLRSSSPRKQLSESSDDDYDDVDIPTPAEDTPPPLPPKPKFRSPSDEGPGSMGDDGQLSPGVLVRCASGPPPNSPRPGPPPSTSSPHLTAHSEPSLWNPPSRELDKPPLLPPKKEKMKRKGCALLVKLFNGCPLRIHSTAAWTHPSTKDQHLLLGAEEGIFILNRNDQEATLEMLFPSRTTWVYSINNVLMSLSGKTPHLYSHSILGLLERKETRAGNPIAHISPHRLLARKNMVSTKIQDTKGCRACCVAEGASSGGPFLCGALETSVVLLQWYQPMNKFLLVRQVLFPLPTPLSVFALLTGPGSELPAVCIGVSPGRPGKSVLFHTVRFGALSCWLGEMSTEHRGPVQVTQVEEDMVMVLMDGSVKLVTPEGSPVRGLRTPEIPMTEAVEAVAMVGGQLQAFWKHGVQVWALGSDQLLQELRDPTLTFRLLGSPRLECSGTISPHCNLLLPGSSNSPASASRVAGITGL

SMILES | IC50 (MAP4K1 (HPK1); class designation) [nM] | IC50 (MAP4K1 (HPK1); numeric value) [nM] | EC50 (expanded CD3+ T cells; class designation) [nM] | EC50 (expanded CD3+ T cells; numeric value) [nM] | EC50 (expanded CD3+ T cells; [1]) [nM] | EC50 (expanded CD3+ T cells; [2]) [nM]
COc1ncc(C(C)(C)N)c2cc(Nc3ccc4c(n3)[C@@H](C)COC4=O)ncc12 (single isomer, unassigned) [Compound 22] | 0.31 to 1 | 0.5 | 35.1 to 45 | 36.6 |  | 
COc1ncc(C(C)(C)N)c2cc(Nc3ccc4c(n3)[C@@H](C)COC4=O)ncc12 (single isomer, unassigned) [Compound 23] | < 0.3 | 0.11 | < 35 | 4.9 |  | 
COc1ncc(C(C)(C)N)c2cc(Nc3ccc4c(n3)C[C@@H](C)OC4=O)ncc12 (single isomer, unassigned) [Compound 24] | 0.31 to 1 | 0.47 | < 35 | 11.3 |  | 
COc1ncc(C(C)(C)N)c2cc(Nc3ccc4c(n3)C[C@H](C)OC4=O)ncc12 (single isomer, unassigned) [Compound 25] | < 0.3 | 0.29 | < 35 | 3.3 |  | 
COc1ncc(C(C)(C)N)c2cc(Nc3ccc4c(n3)[C@@H](C)[C@@H](C)OC4=O)ncc12 (single isomer, unassigned) [Compound 39] | 0.31 to 1 | 0.85 | < 35 | 16.2 |  | 
COc1ncc(C(C)(C)N)c2cc(Nc3ccc4c(n3)[C@H](C)[C@H](C)OC4=O)ncc12 (single isomer, unassigned) [Compound 40] | < 0.3 | 0.15 | < 35 | 4 |  | 
CCOc1ncc(C(C)(C)N)c2cc(Nc3ccc4c(n3)C[C@H](C)OC4=O)ncc12 (single isomer, unassigned) [Compound 41] | 0.31 to 1 | 0.57 | < 35 | 22.7 |  | 
CCOc1ncc(C(C)(C)N)c2cc(Nc3ccc4c(n3)C[C@@H](C)OC4=O)ncc12 (single isomer, unassigned) [Compound 42] | 0.31 to 1 | 0.86 | < 35 | 13.6 |  | 
CCOc1ncc(C(C)(C)N)c2cc(Nc3ccc4c(n3)[C@@H](C)COC4=O)ncc12 (single isomer, unassigned) [Compound 43] | < 0.3 | 0.23 | < 35 | 8.3 |  | 
CCOc1ncc(C(C)(C)N)c2cc(Nc3ccc4c(n3)[C@H](C)COC4=O)ncc12 (single isomer, unassigned) [Compound 44] | 1.1 to 10 | 1.2 | < 35 | 22 |  | 
CCOc1ncc(C(C)(C)N)c2cc(Nc3ccc4c(n3)[C@@H](C)[C@@H](C)OC4=O)ncc12 (single isomer, unassigned) [Compound 59] | 1.1 to 10 | 3.35 | > 55 | 56.7 |  | 
CCOc1ncc(C(C)(C)N)c2cc(Nc3ccc4c(n3)[C@H](C)[C@H](C)OC4=O)ncc12 (single isomer, unassigned) [Compound 60] | < 0.3 | 0.18 | < 35 | 10.3 |  | 
CC[C@@](C)(N)c1cnc(OC)c2cnc(Nc3ccc4c(n3)CC(C)(C)OC4=O)cc12 (single isomer, unassigned) [Compound 61] | < 0.3 | 0.15 | < 35 | 3.5 |  | 
C[C@@H]1OC(=O)c2ccc(Nc3cc4c([C@](C)(N)C5CC5)cnc(OC5CC5)c4cn3)nc2[C@H]1C (single isomer, unassigned) [Compound 75] |  | 0.09 |  |  | < 35 | 7.3
C[C@@H]1c2nc(Nc3cc4c([C@](C)(N)C5CC5)ncc(OC5CC5)c4cn3)ccc2C(=O)OC1(C)C (single isomer, unassigned) [Compound 76] |  | 0.12 |  |  | < 35 | 6.5
C[C@](N)(c1cnc(OC2CC2)c2cnc(Nc3ccc4c(n3)CCNC4=O)cc12)C1CC1 (single isomer, unassigned) [Compound 106] |  | 0.61 |  |  | 35.1 to 45 | 41.3
C[C@H]1COC(=O)c2ccc(Nc3cc4c([C@](C)(N)C5CC5)cnc(OC5CC5)c4cn3)nc21 (single isomer, unassigned) [Compound 117] | < 0.3 |  |  |  | < 35 | 16
C[C@@H]1COC(=O)c2ccc(Nc3cc4c([C@](C)(N)C5CC5)cnc(OC5CC5)c4cn3)nc21 (single isomer, unassigned) [Compound 118] | 1.1 to 10 | 1.28 | > 55 | 81.7 |  | 
CC[C@@](C)(N)c1cnc(OC2CC2)c2cnc(Nc3ccc4c(n3)CC(C)(C)OC4=O)cc12 (single isomer, unassigned) [Compound 132] | < 0.3 | 0.18 | < 35 | 12.9 |  | 
C[C@](N)(c1cnc(OC2CC2)c2cnc(Nc3ccc4c(n3)C3(CC3)COC4=O)cc12)C1CC1 (single isomer, unassigned) [Compound 146] |  | 0.25 |  |  | > 55 | 60.4

The remaining lines, values ahead:

IC50 (MAP4K1 (HPK1); class designation) [nM] | IC50 (MAP4K1 (HPK1); numeric value) [nM] | EC50 (expanded CD3+ T cells; class designation) [nM] | EC50 (expanded CD3+ T cells; numeric value) [nM] | EC50 (expanded CD3+ T cells; [1]) [nM] | EC50 (expanded CD3+ T cells; [2]) [nM] | SMILES
 | 0.27 |  |  | 35.1 to 45 | 45.2 | C[C@](N)(c1cnc(OC2CC2)c2cnc(Nc3ccc4c(n3)CC3(CC3)OC4=O)cc12)C1CC1 (single isomer, unassigned) [Compound 147]
 | 0.22 |  |  | < 35 | 27.3 | CC1(C)COC(=O)c2ccc(Nc3cc4c([C@](C)(N)C5CC5)cnc(OC5CC5)c4cn3)nc21 (single isomer, unassigned) [Compound 151]
0.31 to 1 | 0.42 | > 55 | 54.4 |  |  | CC[C@]1(C)OC(=O)c2ccc(Nc3cc4c([C@](C)(N)C5CC5)cnc(OC5CC5)c4cn3)nc21 (single isomer, unassigned) [Compound 152]
< 0.3 | 0.08 | < 35 | 11 |  |  | C[C@@H]1c2nc(Nc3cc4c([C@](C)(N)C5CC5)cnc(OC5CC5)c4cn3)ccc2C(=O)O[C@@H]1C (single isomer, unassigned) [Compound 154]
0.31 to 1 | 0.97 | > 55 | 88.4 |  |  | C[C@@H]1OC(=O)c2ccc(Nc3cc4c([C@](C)(N)C5CC5)cnc(OC5CC5)c4cn3)nc2[C@@H]1C (single isomer, unassigned) [Compound 155]
< 0.3 | 0.05 | < 35 | 9.4 |  |  | C[C@H]1OC(=O)c2ccc(Nc3cc4c([C@](C)(N)C5CC5)cnc(OC5CC5)c4cn3)nc2C12CC2 (single isomer, unassigned) [Compound 167]
< 0.3 | 0.07 | < 35 | 27.6 |  |  | C[C@H]1OC(=O)c2ccc(Nc3cc4c([C@](C)(N)C5CC5)cnc(OC5CC5)c4cn3)nc2C1(C)C (single isomer, unassigned) [Compound 171]
< 0.3 |  |  |  | < 35 | 15.1 | CC[C@@](C)(N)c1cnc(OCC(F)(F)F)c2cnc(Nc3ccc4c(n3)[C@@H](C)[C@H](C)OC4=O)cc12 (single isomer, unassigned) [Compound 181]
1.1 to 10 | 2.92 | 35.1 to 45 | 38.8 |  |  | CC[C@@](C)(N)c1cnc(OCC(F)(F)F)c2cnc(Nc3ccc4c(n3)[C@@H](C)[C@H](C)OC4=O)cc12 (single isomer, unassigned) [Compound 182]
